# Measurements taken from patent US6525001B1, “Substituted pyrimidine and pyridine herbicides” (Mid-American Commercialization Corporation, priority 1997, dated 2003).
# Columns and labels:
# Format in all cases: in vivo
# [1] = system: bedstraw (Galium aparine); assay: Test B pre-/postemergence; design: key: 0 is no effect; 10 is complete control; settings: for Bedstraw plant response rating: Preemergence
# In short: (§1)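 Compounds in a surfactant-containing, non-phytotoxic solvent blend are applied to freshly planted seed (preemergence) and, concurrently, to seedlings of 2 to 18 cm at 1–4 leaves (postemergence). Plants stay in the greenhouse twelve to sixteen days and are then scored visually from 0 (no effect) to 10 (complete control).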
# [2] = system: blackgrass (Alopecurus myosuroides); assay: Test B pre-/postemergence; design: key: 0 is no effect; 10 is complete control; settings: for Blackgrass plant response rating: Preemergence
# In short: as §1
# [3] = system: broadleaf signalgrass (Brachiaria decumbens); assay: Test B pre-/postemergence; design: key: 0 is no effect; 10 is complete control; settings: for B. signalgrass plant response rating: Preemergence
# In short: as §1
# [4] = system: cocklebur (Xanthium strumarium); assay: Test B pre-/postemergence; design: key: 0 is no effect; 10 is complete control; settings: for Cocklebur plant response rating: Preemergence
# In short: as §1
# [5] = system: corn (Zea mays); assay: Test B pre-/postemergence; design: key: 0 is no effect; 10 is complete control; settings: for Corn plant response rating: Preemergence
# In short: as §1
# [6] = system: crabgrass (Digitaria sanguinalis); assay: Test B pre-/postemergence; design: key: 0 is no effect; 10 is complete control; settings: for Crabgrass plant response rating: Preemergence
# In short: as §1
# [7] = system: giant foxtail (Setaria faberii); assay: Test B pre-/postemergence; design: key: 0 is no effect; 10 is complete control
# In short: as §1
# [8] = system: momingglory (Ipomoea hederacea); assay: Test B pre-/postemergence; design: key: 0 is no effect; 10 is complete control
# In short: as §1
# [9] = system: pigweed (Amaranthus retroflexus); assay: Test B pre-/postemergence; design: key: 0 is no effect; 10 is complete control
# In short: as §1
# [10] = system: purple nutsedge (Cyperus rotundus); assay: Test B pre-/postemergence; design: key: 0 is no effect; 10 is complete control; settings: Postemergence
# In short: as §1
# [11] = system: rape (Brassica napus); assay: Test B pre-/postemergence; design: key: 0 is no effect; 10 is complete control
# In short: as §1
# [12] = system: soybean (Glycine max); assay: Test B pre-/postemergence; design: key: 0 is no effect; 10 is complete control
# In short: as §1
# [13] = system: sugar beet (Beta vulgaris); assay: Test B pre-/postemergence; design: key: 0 is no effect; 10 is complete control
# In short: as §1
# [14] = system: velvetleaf (Abutilon theophrasti); assay: Test B pre-/postemergence; design: key: 0 is no effect; 10 is complete control
# In short: as §1
# [15] = system: wheat (Triticum aestivum); assay: Test B pre-/postemergence; design: key: 0 is no effect; 10 is complete control
# In short: as §1
# [16] = system: wild oat (Avena fatua); assay: Test B pre-/postemergence; design: key: 0 is no effect; 10 is complete control
# In short: as §1
# [17] = system: bamyardgrass (Echinochloa crus-galli); assay: Test B flood test
# In short: (§2)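 Read-out is a visual response score from 0 (no effect) to 10 (complete control), assigned by comparison with untreated controls. Treatment was applied at the 2-leaf stage, and plants stayed in the greenhouse for twelve to sixteen days before scoring.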
# [18] = system: duck salad (Heteranthera limosa); assay: Test B flood test
# In short: as §2
# [19] = system: rice (Oryza sativa); assay: Test B flood test
# In short: as §2
# [20] = system: smallflower flatsedge (Cyperus difformis); assay: Test B flood test
# In short: as §2
# [21] = Rate 250 g/ha, Postemergence (so in the source)
# [22] = Rate 62 g/ha, Postemergence (flood test)
# [23] = Rate 125 g/ha, Postemergence, flood test
# [24] = Rate 250 g/ha, Postemergence (flood test species)
# [25] = Rate 125 g/ha, Postemergence section (flood test species)
smiles,measurement,setting,value
CCc1cnc(-n2cnc(C(F)(F)F)n2)nc1Cc1cccc(OC(F)(F)F)c1 [Compound 50],"Plant response rating, Bedstraw","[1]; Rate 62 g/ha, Postemergence",9
same,Bedstraw plant response rating,[1]; Rate 62 g/ha,2
same,"Plant response rating, Bedstraw","[1]; Rate 125 g/ha, Postemergence",10
same,Bedstraw plant response rating,[1]; Rate 125 g/ha,7
same,"Plant response rating, Bedstraw",[1]; [21],9
same,"Plant response rating, Blackgrass","[2]; Rate 62 g/ha, Postemergence",2
same,Blackgrass plant response rating,[2]; Rate 62 g/ha,3
same,"Plant response rating, Blackgrass","[2]; Rate 125 g/ha, Postemergence",5
same,Blackgrass plant response rating,[2]; Rate 125 g/ha,5
same,"Plant response rating, Blackgrass","[2]; Rate 250 g/ha, Postemergence",8
same,"Plant response rating, Blackgrass",[2]; [21],10
same,"Plant response rating, B. signalgrass","[3]; Rate 62 g/ha, Postemergence",1
same,B. signalgrass plant response rating,[3]; Rate 62 g/ha,0
same,"Plant response rating, B. signalgrass","[3]; Rate 125 g/ha, Postemergence",1
same,B. signalgrass plant response rating,[3]; Rate 125 g/ha,1
same,"Plant response rating, B. signalgrass","[3]; Rate 250 g/ha, Postemergence",2
same,"Plant response rating, B. signalgrass","[3]; Rate 250 g/ha, Postemergence as printed in head r139 (second section for compounds 26-50)",1
same,"Plant response rating, Cocklebur","[4]; Rate 62 g/ha, Postemergence",4
same,Cocklebur plant response rating,[4]; Rate 62 g/ha,0
same,"Plant response rating, Cocklebur","[4]; Rate 125 g/ha, Postemergence",4
same,Cocklebur plant response rating,[4]; Rate 125 g/ha,0
same,"Plant response rating, Cocklebur","[4]; Rate 250 g/ha, Postemergence",7
same,"Plant response rating, Cocklebur",[4]; [21],0
same,"Plant response rating, Corn","[5]; Rate 62 g/ha, Postemergence",1
same,Corn plant response rating,[5]; Rate 62 g/ha,0
same,"Plant response rating, Corn","[5]; Rate 125 g/ha, Postemergence",2
same,Corn plant response rating,[5]; Rate 125 g/ha,0
same,"Plant response rating, Corn","[5]; Rate 250 g/ha, Postemergence",2
same,"Plant response rating, Corn",[5]; [21],0
same,"Plant response rating, Crabgrass","[6]; Rate 62 g/ha, Postemergence",1
same,Crabgrass plant response rating,[6]; Rate 62 g/ha,6
same,"Plant response rating, Crabgrass","[6]; Rate 125 g/ha, Postemergence",2
same,Crabgrass plant response rating,[6]; Rate 125 g/ha,9
same,"Plant response rating, Crabgrass","[6]; Rate 250 g/ha, Postemergence",6
same,"Plant response rating, Crabgrass",[6]; [21],9
same,"Plant response rating, Giant foxtail","[7]; Rate 62 g/ha, Postemergence",1
same,Giant foxtail plant response rating,"[7]; Rate 62 g/ha, Preemergence",2
same,Giant foxtail plant response rating,"[7]; Rate 125 g/ha, Postemergence",2
same,Giant foxtail plant response rating,"[7]; Rate 125 g/ha, Preemergence",7
same,"Plant response rating, Giant foxtail","[7]; Rate 250 g/ha, Postemergence",2
same,"Plant response rating, Giant foxtail",[7]; [21],8
same,"Plant response rating, Morningglory","[8]; Rate 62 g/ha, Postemergence",3
same,Morningglory plant response rating,"[8]; Rate 62 g/ha, Preemergence",1
same,Morningglory plant response rating,"[8]; Rate 125 g/ha, Postemergence",3
same,Morningglory plant response rating,"[8]; Rate 125 g/ha, Preemergence",3
same,"Plant response rating, Morningglory","[8]; Rate 250 g/ha, Postemergence",3
same,"Plant response rating, Morningglory",[8]; [21],4
same,"Plant response rating, Redroot pigweed","[9]; Rate 62 g/ha, Postemergence",8
same,Redroot pigweed plant response rating,"[9]; Rate 62 g/ha, Preemergence",7
same,Redroot pigweed plant response rating,"[9]; Rate 125 g/ha, Postemergence",8
same,Redroot pigweed plant response rating,"[9]; Rate 125 g/ha, Preemergence",9
same,"Plant response rating, Redroot pigweed","[9]; Rate 250 g/ha, Postemergence",9
same,"Plant response rating, Redroot pigweed",[9]; [21],9
same,"Plant response rating, Nutsedge",[10]; Rate 62 g/ha,2
same,Nutsedge plant response rating,[10]; Rate 125 g/ha,2
same,"Plant response rating, Nutsedge",[10]; Rate 250 g/ha,2
same,"Plant response rating, Rape","[11]; Rate 62 g/ha, Postemergence",9
same,Rape plant response rating,"[11]; Rate 62 g/ha, Preemergence",6
same,Rape plant response rating,"[11]; Rate 125 g/ha, Postemergence",10
same,Rape plant response rating,"[11]; Rate 125 g/ha, Preemergence",10
same,"Plant response rating, Rape","[11]; Rate 250 g/ha, Postemergence",10
same,"Plant response rating, Rape",[11]; [21],10
same,"Plant response rating, Soybean","[12]; Rate 62 g/ha, Postemergence",6
same,Soybean plant response rating,"[12]; Rate 62 g/ha, Preemergence",1
same,Soybean plant response rating,"[12]; Rate 125 g/ha, Postemergence",7
same,"Plant response rating, Soybean","[12]; Rate 125 g/ha, Preemergence",1
same,"Plant response rating, Soybean","[12]; Rate 250 g/ha, Postemergence",7
same,"Plant response rating, Soybean",[12]; [21],1
same,"Plant response rating, Sugarbeets","[13]; Rate 62 g/ha, Postemergence",7
same,Sugarbeets plant response rating,"[13]; Rate 62 g/ha, Preemergence",6
same,Sugarbeets plant response rating,"[13]; Rate 125 g/ha, Postemergence",8
same,"Plant response rating, Sugarbeets","[13]; Rate 125 g/ha, Preemergence",6
same,"Plant response rating, Sugarbeets","[13]; Rate 250 g/ha, Postemergence",10
same,"Plant response rating, Sugarbeets",[13]; [21],10
same,"Plant response rating, Velvetleaf","[14]; Rate 62 g/ha, Postemergence",6
same,Velvetleaf plant response rating,"[14]; Rate 62 g/ha, Preemergence",4
same,Velvetleaf plant response rating,"[14]; Rate 125 g/ha, Postemergence",7
same,"Plant response rating, Velvetleaf","[14]; Rate 125 g/ha, Preemergence",7
same,"Plant response rating, Velvetleaf","[14]; Rate 250 g/ha, Postemergence",8
same,"Plant response rating, Velvetleaf",[14]; [21],9
same,Wheat plant response rating,"[15]; Rate 62 g/ha, Postemergence",3
same,Wheat plant response rating,"[15]; Rate 62 g/ha, Preemergence",1
same,Wheat plant response rating,"[15]; Rate 125 g/ha, Postemergence",3
same,"Plant response rating, Wheat","[15]; Rate 125 g/ha, Preemergence",2
same,"Plant response rating, Wheat","[15]; Rate 250 g/ha, Postemergence",4
same,"Plant response rating, Wheat",[15]; [21],2
same,Wild oats plant response rating,"[16]; Rate 62 g/ha, Postemergence",2
same,Wild oats plant response rating,"[16]; Rate 62 g/ha, Preemergence",3
same,Wild oats plant response rating,"[16]; Rate 125 g/ha, Postemergence",3
same,"Plant response rating, Wild oats","[16]; Rate 125 g/ha, Preemergence",4
same,"Plant response rating, Wild oats","[16]; Rate 250 g/ha, Postemergence",4
same,"Plant response rating, Wild oats",[16]; [21],8
same,"Plant response rating, Barnyardgrass",[17]; [22],3
same,"Plant response rating, Barnyardgrass",[17]; [23],4
same,"Plant response rating, Barnyardgrass",[17]; [24],4
same,"Plant response rating, Ducksalad",[18]; [22],4
same,"Plant response rating, Ducksalad",[18]; [23],5
same,"Plant response rating, Ducksalad",[18]; [24],8
same,"Plant response rating, Rice",[19]; [22],2
same,Rice plant response rating,[19]; [25],3
same,"Plant response rating, Rice",[19]; [24],4
same,"Plant response rating, S. Flatsedge",[20]; [22],6
same,S. Flatsedge plant response rating,[20]; [25],8
same,"Plant response rating, S. Flatsedge",[20]; [24],9
